From US7807673B2, “2-pyrimidinyl pyrazolopyridine ErbB kinase inhibitors” (GlaxoSmithKline LLC, priority 2005, dated 2010)
pIC50: −log10 of the molar value.

Assays:
ErbB2 or EGFR = biological target: T1, ErbB2 or EGFR; assay: ErbB enzyme substrate phosphorylation assay (HTRF), Method B (enzyme pre-incubated with compound 1 hour); format: biochemical; conditions: Table 1, enzyme Method B: enzyme mix incubated with compound 1 hour at 20° C., reaction started with substrate mix; class over ErbB2 or EGFR
T1 construct: enzymes purified from a baculovirus expression system
Experimental: Compounds of the present invention were tested for EGFR, ErbB-2, and ErbB-4 protein tyrosine kinase inhibitory activity in substrate phosphorylation assays using enzymes purified from a baculovirus expression system. Reagent production was conducted essentially as described in Brignola, P. S., et al, (2002) J. Biol. Chem. 277(2): 1576-1585.
The method measures the ability of the isolated enzyme to catalyse the transfer of the gamma-phosphate from ATP onto the tyrosine residue of a biotinylated synthetic peptide referenced “Peptide C” in Brignola, P. S., et al, (2002) J. Biol. Chem. 277(2):1576-1585. The extent of tyrosine phosphorylation was measured using an anti-phosphotyrosine antibody, and quantified by homogenous time-resolved fluorescence (HTRF).
Reactions were performed in black 384-well polystyrene flat-bottom plates in a final volume of 20 μl. Assays were performed by adding 10 μl of each of the following solutions, substrate Mix and enzyme mix: The Substrate mix contained 100 mM 3-[N-morpholino]propanesulfonic acid (MOPS) (pH 7.5), 2 mM MnCl2, 20 μM ATP, 0.01% Tween-20, 0.1 mg/mL (BSA), 0.8 uM peptide substrate, and 1 mM dithiothreitol. The enzyme mix contained 100 mM MOPS (pH7.5); 0.01% Tween-20; 0.1 mg/mL BSA, and either 0.8 nM EGFR, 10 nM ErbB2, or 1 nM ErbB4
During the course of these studies, two separate methods have been used to measure the potency of compounds. In Method A, the substrate mix was added to the compound plates first, then the reaction was started by adding the enzyme mix. In Method B, the enzyme mix was added to the compound plates and the plates were incubated at 20° C. for 1 hour. The reactions were then started by adding the substrate mix.
After initiating the reaction with either method describe above, the reactions were allowed to proceed for 90 minutes at 20° C. The reactions were then terminated by the addition of 20 μl 100 mM EDTA to each well. 40 μl/well of HTRF detection mix were added to the assay plates. The final concentrations of the detection reagents were: 100 mM HEPES (pH7.5), 0.1 mg/mL BSA, 15 nM streptavidin-labeled allophycocyanin (PerkinElmer), and 1 nM europium-labeled anti-phosphotyrosine antibody (PerkinElmer). Assay plates were left unsealed and were counted in a Wallac Multilabel Counter 1420 (PerkinElmer).
Compounds under analysis were dissolved in Me2SO to 1.0 mM and serially diluted 1 to 3 with Me2SO through twelve dilutions. 1 μl of each concentration was transferred to the corresponding well of an assay plate. This creates a final compound concentration range from 0.00027 to 47.6 μM.
The data for dose responses were plotted as % Inhibition calculated with the data reduction formula 100*(1−(U1−C2)/(C1−C2)) versus concentration of compound where U is the unknown value, C1 is the average control value obtained for 4.76% DMSO, and C2 is the average control value obtained for 0.035 M EDTA. Data were fitted with a curve described by: y=((Vmax*x)/(K+x))+Y2 where Vmax is the upper asymptote, Y2 is the Y intercept, and K is the IC50. The results for each compound were recorded as pIC50s, calculated as follows: pIC50=−Log 10(K)

[1] = tested on: BT474 and HN5 tumor cell lines; assay: Celltiter Glo growth inhibition assay (cellular Method B); format: cell-based; conditions: Homo sapiens, BT-474, 72 h; Table 2, Method B Celltiter Glo, 3 days; class over BT474 and HN5;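 note: class counts the more potent of the two cell lines (BT474 or HN5)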
Experimental: (§1) Human breast tumor cells (BT474) were cultured in RPMI, (Invitrogen, 22400) containing 10% fetal bovine serum (FBS). Human head and neck tumor cells (HN5) were cultured in low glucose DMEM (Invitrogen, 12320) containing 10% FBS. Human colon tumor cells (Colo205) were cultured in DMEM (Invitrogen, 10564) containing 10% FBS. All cell lines were maintained at 37° C. in a humidified 5% CO2, 95% air incubator. Cells were harvested using trypsin/EDTA, counted using a haemocytometer, and plated in 30 microliters of the appropriate media described above, at the following densities, in a half area, black-walled, 96-well tissue culture plate (Corning 3882): BT474 3,000 cells/well, HN5 500 cells/well and Colo205 cells, 3,000 cells/well. The next day, compounds were diluted in DMEM containing 100 mg/ml gentamicin, from 10 mM stock solutions in DMSO. 30 microliters/well of these dilutions were added to the 30 microliters/well of media currently on the cell plates. Medium containing 0.6% DMSO was added to control wells. The final concentration of DMSO in all wells was 0.3%. Cells were incubated at 37° C., 5% CO2 for 3 days. Cell biomass was estimated using Celltiter Glo (Promega G7571). Briefly, plates were removed from the incubator and allowed to equilibrate to rt for 30 minutes. 60 microliters of Celltiter Glo reagent were added to each well of the treated cells and plates were shaken on an orbital plate shaker for 2 min. Plates were incubated without shaking for 30 more min and read in a luminometer with an integration time of 0.5 seconds per well. Percent inhibition of cell growth was calculated relative to vehicle treated control wells. Concentration of compound that inhibits 50% of vehicle control cell growth (IC50) was interpolated using nonlinear regression (Levenberg-Marquardt) and the equation, y=Vmax*(1−(x/(K+x)))+Y2, where “K” was equal to the IC50.

Colo205 tumor cell lines = assay: as above; format: cell-based; conditions: Homo sapiens, COLO 205, 72 h, Table 3, Method B Celltiter Glo, 3 days
Experimental: as §1

| Compound | Activity (Method) (ErbB2 or EGFR) | pIC50 [1] | pIC50 (Colo205 tumor cell lines) |
| --- | --- | --- | --- |
| CN(C)CCOc1cccc(Nc2nccc(-c3c(-c4ccc(F)c(NC(=O)Cc5cccs5)c4)nn4ccccc34)n2)c1 [Example 38, N-[5-(3-{2-[(3-{[2-(dimethylamino)ethyl]oxy}phenyl)amino]-4-pyrimidinyl}pyrazolo[1,5-a]pyridin-2-yl)-2-fluorophenyl]-2-(2-thienyl)acetamide] | ++ (B) (at least one pIC50 measurement greater than 6 against either ErbB2 or EGFR but no measurement greater than pIC50 of 7) | 6.00 to 7.00 | 6.00 to 7.00 |
| O=C(Cc1cccs1)Nc1cccc(-c2nn3cc(F)ccc3c2-c2ccnc(Nc3cccc(F)c3)n2)c1 [Example 33, N-[3-(6-fluoro-3-{2-[(3-fluorophenyl)amino]-4-pyrimidinyl}pyrazolo[1,5-a]pyridin-2-yl)phenyl]-2-(2-thienyl)acetamide] | ++ (B) (at least one pIC50 measurement greater than 6 against either ErbB2 or EGFR but no measurement greater than pIC50 of 7) | < 6.00 | < 6.00 |
| Cc1cc(CC(=O)Nc2cccc(-c3nn4ccccc4c3-c3ccnc(Nc4cccc(-c5cnco5)c4)n3)c2)on1 [Example 19, 2-(3-Methyl-5-isoxazolyl)-N-{3-[3-(2-{[3-(1,3-oxazol-5-yl)phenyl]amino}-4-pyrimidinyl)pyrazolo[1,5-a]pyridin-2-yl]phenyl}acetamide] | +++ (B) (at least one pIC50 measurement of greater than 7 against either ErbB2 or EGFR) | 6.00 to 7.00 | < 6.00 |
| CN(C)CCOc1cccc(Nc2nccc(-c3c(-c4cccc(NC(=O)Cc5cccs5)c4)nn4cccc(F)c34)n2)c1 [Example 31, N-[3-(3-{2-[(3-{[2-(dimethylamino)ethyl]oxy}phenyl)amino]-4-pyrimidinyl}-4-fluoropyrazolo[1,5-a]pyridin-2-yl)phenyl]-2-(2-thienyl)acetamide] | ++ (B) (at least one pIC50 measurement greater than 6 against either ErbB2 or EGFR but no measurement greater than pIC50 of 7) | < 6.00 | < 6.00 |
| O=C(Cc1cccs1)Nc1cc(-c2nn3ccccc3c2-c2ccnc(Nc3cccc(CN4CCCC4)c3)n2)ccc1F [Example 61, N-{2-Fluoro-5-[3-(2-{[3-(1-pyrrolidinylmethyl)phenyl]amino}-4-pyrimidinyl)pyrazolo[1,5-a]pyridin-2-yl]phenyl}-2-(2-thienyl)acetamide] | ++ (B) (at least one pIC50 measurement greater than 6 against either ErbB2 or EGFR but no measurement greater than pIC50 of 7) | 6.00 to 7.00 | 6.00 to 7.00 |
| CN(C)CCOc1cccc(Nc2nccc(-c3c(-c4cccc(NC(=O)Cc5cccs5)c4)nn4cc(F)ccc34)n2)c1 [Example 34, N-[3-(3-{2-[(3-{[2-(dimethylamino)ethyl]oxy}phenyl)amino]-4-pyrimidinyl}-6-fluoropyrazolo[1,5-a]pyridin-2-yl)phenyl]-2-(2-thienyl)acetamide] | +++ (B) (at least one pIC50 measurement of greater than 7 against either ErbB2 or EGFR) | 6.00 to 7.00 | 6.00 to 7.00 |
| CN(C)CCNCc1cccc(Nc2nccc(-c3c(-c4cccc(NC(=O)Cc5cccs5)c4)nn4ccccc34)n2)c1 [Example 40, N-{3-[3-(2-{[3-({[2-(dimethylamino)ethyl]amino}methyl)phenyl]-amino}-4-pyrimidinyl)pyrazolo[1,5-a]pyridin-2-yl]phenyl}-2-(2-thienyl)acetamide] | +++ (B) (at least one pIC50 measurement of greater than 7 against either ErbB2 or EGFR) | 6.00 to 7.00 | 6.00 to 7.00 |
| CN1CCC(N(C)CCOc2cc(Nc3nccc(-c4c(-c5cccc(NC(=O)Cc6cccs6)c5)nn5ccccc45)n3)ccc2Cl)C1 (stereo not drawn) [Example 46, N-{3-[3-(2-{[4-Chloro-3-({2-[methyl(1-methyl-3-pyrrolidinyl)amino]-ethyl}oxy)phenyl]amino}-4-pyrimidinyl)pyrazolo[1,5-a]pyridin-2-yl]phenyl}-2-(2-thienyl)acetamide] | +++ (B) (at least one pIC50 measurement of greater than 7 against either ErbB2 or EGFR) | < 6.00 | < 6.00 |
